Experiments:
Format in all cases: in vivo
Cyperus iria = assay: Indoor herbicide activity determination, post-emergence (stem and leaf spray at 2-4 leaf stage); settings: 504 h, determined 21 days later, read-out: Inhibition rate of fresh weight, Cyperus iria; for inhibition at 60 g/ha: 60 g a.i./ha
Description: (§1) The testing method for herbicide activity of the compound of the present invention was as follows:
(§2) Post-emergence: an appropriate quantity of seeds of gramineous weeds (Echinochloa crusgalli, Eleusine indica, Digitaria sanguinalis, Alopecurus japonicus, Beckmannia syzigachne, Leptochloa chinensis, Polypogon fugax, Alopecurus aequalis, Lolium multiflorum, Poa annua, Aegilops tauschii, Avena fatua, Alopecurus myosuroides, Alopecurus japonicus and Alopecurus aequalis), broad-leaved weeds (Eclipta prostrata, Amaranthus retroflexus, Rorippa indica, Malachium aquaticum, Veronica polita, Conyza canadensis, Sesbania cannabina, Sagittariatrifolia and Schoenoplectiella juncoides), and Cyperus iria were sown in plastic pots having a diameter of 7 cm and holes at the bottom and filled with nutrient soil (sandy soil, pH 6.1, organic matter 1%) respectively, the seeds were covered with an appropriate amount of soil after being sown, then the soil was wetted with water from the bottom, the seeds were cultured in a constant-temperature illuminated culture room until a 2-4 leaf stage, and stems and leaves underwent spray treatment. After the treatment, the test materials were placed in a laboratory and cultured in the constant-temperature illuminated culture room after the liquid was naturally dry in the shade, and results were determined 21 days later. Inhibition rate of fresh weight % = (1−(fresh weight of treated plants)/(fresh weight of control plants)) × 100% [formula]

Digitaria sanguinalis = assay: as above; settings: 504 h, determined 21 days later, read-out: Inhibition rate of fresh weight, Digitaria sanguinalis; for inhibition at 60 g/ha: 60 g a.i./ha
Description: as §1, §2

Eclipta prostrata = assay: as above; settings: 504 h, determined 21 days later, read-out: Inhibition rate of fresh weight, Eclipta prostrata; for inhibition at 60 g/ha: 60 g a.i./ha
Description: as §1, §2

Alopecurus japonicus = assay: Indoor herbicide activity determination, Seed Treatment; pre-emergence (soil spray); settings: Dosage 240 g a.i./ha
Outline: (§3)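 Sow seeds into soil-filled 7 cm pots (sandy, pH 6.1, 1% organic matter) and cover them. Water from beneath, then incubate 24 h in a lit, temperature-controlled chamber. Spray the soil in a traveling tower, let it dry in shade, grow on 21 days, and weigh fresh biomass against controls.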

Alopecurus myosuroides = assay: as above; settings: Dosage 240 g a.i./ha
Outline: as §3

Eleusine indica = assay: as above; settings: Dosage 240 g a.i./ha
Outline: as §3

Leptochloa chinensis = assay: as above; settings: Dosage 240 g a.i./ha
Outline: as §3

Lolium multiflorum = assay: as above; settings: Dosage 240 g a.i./ha
Outline: as §3

| SMILES | inhibition at 30 g/ha (Cyperus iria; 30 g a.i./ha) [%] | inhibition at 30 g/ha (Digitaria sanguinalis; 30 g a.i./ha) [%] | inhibition at 30 g/ha (Eclipta prostrata; 30 g a.i./ha) [%] | inhibition at 60 g/ha (Cyperus iria) [%] | inhibition at 60 g/ha (Digitaria sanguinalis) [%] | inhibition at 60 g/ha (Eclipta prostrata) [%] | Herbicidal activities, Alopecurus japonicus (inhibition rate class) (Alopecurus japonicus) | Herbicidal activities, Alopecurus myosuroides (inhibition rate class) (Alopecurus myosuroides) | Herbicidal activities, Eleusine indica (inhibition rate class) (Eleusine indica) | Herbicidal activities, Leptochloa chinensis (inhibition rate class) (Leptochloa chinensis) | Herbicidal activities, Lolium multiflorum (inhibition rate class) (Lolium multiflorum) |
| --- | --- | --- | --- | --- | --- | --- | --- | --- | --- | --- | --- |
| C=C[C@]1(C(=O)N[C@H]2C=C[C@@H](C(=O)O)C2)CC(c2cc(F)cc(F)c2)=NO1 [CK1, reference compound] | 60 to 80 | 60 to 80 | < 20 |  |  |  |  |  |  |  |  |
| O=C(N[C@H]1C[C@@H](C(=O)O)C1)C1(C(F)(F)F)CC(c2cc(F)cc(Cl)c2)=NO1 (mixture of isomers) [I-223] |  |  |  | 80 to 100 | 80 to 100 | 60 to 80 | A (A indicates that the inhibition rate was greater than or equal to 80% to 100%) | A (A indicates that the inhibition rate was greater than or equal to 80% to 100%) | A (A indicates that the inhibition rate was greater than or equal to 80% to 100%) | A (A indicates that the inhibition rate was greater than or equal to 80% to 100%) | A (A indicates that the inhibition rate was greater than or equal to 80% to 100%) |
| COC(=O)[C@H]1C[C@@H](NC(=O)C2(C)CC(c3cc(Cl)cc(Cl)c3)=NO2)C1 (mixture of isomers) [I-139] |  |  |  | 80 to 100 | 80 to 100 | 40 to 60 | A (A indicates that the inhibition rate was greater than or equal to 80% to 100%) | A (A indicates that the inhibition rate was greater than or equal to 80% to 100%) | A (A indicates that the inhibition rate was greater than or equal to 80% to 100%) | A (A indicates that the inhibition rate was greater than or equal to 80% to 100%) | A (A indicates that the inhibition rate was greater than or equal to 80% to 100%) |
| COC(=O)[C@H]1C[C@@H](NC(=O)C2(C(F)(F)F)CC(c3cc(Cl)cc(C(F)(F)F)c3)=NO2)C1 (relative stereo) [I-247] |  |  |  | 80 to 100 | 80 to 100 | 60 to 80 | A (A indicates that the inhibition rate was greater than or equal to 80% to 100%) | A (A indicates that the inhibition rate was greater than or equal to 80% to 100%) |  | A (A indicates that the inhibition rate was greater than or equal to 80% to 100%) | A (A indicates that the inhibition rate was greater than or equal to 80% to 100%) |
| C=CC1(C(=O)N[C@H]2C[C@@H](C(=O)OC)C2)CC(c2cc(Cl)cc(C(F)(F)F)c2)=NO1 (mixture of isomers) [I-55] |  |  |  | 80 to 100 | 60 to 80 | 60 to 80 | A (A indicates that the inhibition rate was greater than or equal to 80% to 100%) | A (A indicates that the inhibition rate was greater than or equal to 80% to 100%) |  | A (A indicates that the inhibition rate was greater than or equal to 80% to 100%) | A (A indicates that the inhibition rate was greater than or equal to 80% to 100%) |

— patent publication EP4722201A1, “3-PHENYLISOXAZOLINE-5-CARBOXAMIDE COMPOUND, AND PREPARATION METHOD THEREFOR, HERBICIDAL COMPOSITION THEREOF AND USE THEREOF” (Jiangsu Flag Chemical Industry Co., Ltd, priority 2023, dated 2024)
